From patent US20250340537A1, “PHARMACEUTICALLY ACTIVE COMPOUNDS, COMPOSITIONS, AND METHODS FOR MODULATING PENDRIN” (ARBORMED Co., Ltd., priority 2022, published 2025)
pEC50: −log10 of the molar value.

Key:
Assay type in all cases: cell-based
H723R-hPDS = biological target: T1, H723R-hPDS (Homo sapiens, UniProt O43511, H723R); assay: Surface biotinylation assay; conditions: Panc1 hPDS-H723R cells, 24 h treatment
T1 construct: expressed in transfected cells; host or cells: Panc1 (Panc1^hPDS-H723R)
T1 sequence (O43511 1-780 H723R): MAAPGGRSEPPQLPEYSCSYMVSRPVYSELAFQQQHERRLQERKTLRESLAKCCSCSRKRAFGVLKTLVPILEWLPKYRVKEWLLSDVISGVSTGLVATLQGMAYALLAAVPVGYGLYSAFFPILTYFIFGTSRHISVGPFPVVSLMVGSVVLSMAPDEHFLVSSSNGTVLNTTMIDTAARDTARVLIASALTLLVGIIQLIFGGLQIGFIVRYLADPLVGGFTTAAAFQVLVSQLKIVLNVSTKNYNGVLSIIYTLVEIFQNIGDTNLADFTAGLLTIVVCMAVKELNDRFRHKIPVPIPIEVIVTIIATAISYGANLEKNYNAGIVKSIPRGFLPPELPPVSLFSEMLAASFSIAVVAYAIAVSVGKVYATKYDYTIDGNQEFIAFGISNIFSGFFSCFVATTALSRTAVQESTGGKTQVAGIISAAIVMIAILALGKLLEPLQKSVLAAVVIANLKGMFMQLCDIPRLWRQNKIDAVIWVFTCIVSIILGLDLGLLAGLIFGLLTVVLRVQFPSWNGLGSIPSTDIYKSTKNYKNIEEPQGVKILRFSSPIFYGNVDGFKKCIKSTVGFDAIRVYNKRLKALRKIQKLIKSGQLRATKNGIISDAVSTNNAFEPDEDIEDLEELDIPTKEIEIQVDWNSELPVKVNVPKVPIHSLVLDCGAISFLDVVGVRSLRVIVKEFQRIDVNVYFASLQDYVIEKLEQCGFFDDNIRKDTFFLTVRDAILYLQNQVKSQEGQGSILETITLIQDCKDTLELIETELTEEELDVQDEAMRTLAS
From the text: Surface biotinylation is a commonly used technique to specifically isolate plasma membrane proteins using a modified biotin in a form that is easy to bind with proteins. Sulfo-NHS-SS-biotin is a generally used reagent in surface biotinylation due to its impermeability and water solubility. In cool conditions, the extracellular domain of membrane proteins is covalently binding with the reactive biotin ester. These proteins are separated from the whole lysate via a biotin-streptavidin response. In this process, we can validate the increasing rate of the expression level of mutant pendrin in the plasma membrane.
Panc1^parental, Panc1^hPDS-WT and Panc1^hPDS-H723R cells were cultured in high glucose DMEM medium supplemented with 10% fetal bovine serum and 1% antibiotics. 24 hours after seeding in 6-well plates, cells were treated as indicated for 24 h. Cells were washed in PBS and incubated on ice with 0.3 mg/ml biotin in PBS. After 35 min, 1% BSA in PBS, D.W mixture (1:1) was added to cells, and cells were incubated for 10 min. Cells were washed and lysed in lysis buffer. The lysates were sonicated for 20 seconds, and not boiled. After centrifugated, the supernatants were collected and quantified via BCA analysis. The quantified supernatants were added to 10% avidin beads in PBS and incubated overnight at 4° C. After incubation, the below steps were repeated 4 times: i) centrifugation, ii) removing the supernatant, iii) washing with lysis buffer. After the last centrifugation and removing the supernatant, the sample buffer mixed with reducing buffer was added to biotin-avidin mixtures. The elution was accomplished in the 38° C. bioshaker for 40 min and the supernatant was collected. The supernatant was separated by SDS-PAGE and transferred to an Immobilon membrane. After incubation in 5% BSA solution to prevent nonspecific binding, the membrane was incubated with specific antibodies overnight. Then, the membrane was washed with TBST buffer and incubated with HRP-conjugated anti-rabbit or -mouse antibody for 1 hour. The ECL buffer and iBright were used for the visualization of protein bands. The respective protein band intensity was quantified by densitometric analysis using the NIH ImageJ program.
It is indicated as expression % with the following key: A=Expression % greater than 100%; B=Expression % greater than 50%, but less than 100%; C=Expression % less than 50%.

H723R-pendrin [1] = biological target: T2, H723R-pendrin (Homo sapiens, UniProt O43511, H723R); assay: YFP fluorescence quenching assay (Cl−/I− exchange activity of pendrin); conditions: PANC-1 cells stably expressing human H723R-pendrin and YFP-F46L/H148Q/I152L; compound incubation 20-24 hours; iodide influx
T2 construct: expressed in transfected cells; host or cells: PANC-1
T2 sequence (O43511 1-780 H723R): T1 sequence (O43511 1-780 H723R)
From the text: Halide sensor YFP F46L/H148Q/I152L is quenched by halide ion like Iodide. When such YFP is expressed in a cell, it expresses in the cytoplasm.
To measure H723R-PDS activity, PANC-1 cells were stably transfected with halide sensors YFP-F46L/H148Q/I152L and H723R-PDS which has problems with membrane trafficking due to misfolding.
If the cell-treated drug is a corrector for H723R-PDS, H723R-PDS will translocate normally to the plasma membrane.
At this time, when treated with a high-concentration iodide solution outside the cell, iodide enters the cell due to the Cl−/I− exchange activity of pendrin, and the fluorescence of the halide sensor YFP decreases.
PANC-1 cells were cultured in Dulbecco's Modified Eagle's Medium with 10% fetal bovine serum, 2 mM glutamine, 100 units/ml penicillin and 100 µg/ml streptomycin. For high-throughput screening, PANC-1 cells were stably transfected with human H723R-pendrin and halide sensor YFP-F46L/H148Q/I152L.
PANC-1 cells expressing human H723R-pendrin and YFP-F46L/H148Q/I152L were plated in 96-well microplates at a density of 2×10^4 cells per well and grown for 20-24 hours at 37° C. (90% humidity 5% CO2). Then these cells were treated with 50 μl growth medium containing test compounds and incubated for 20-24 hours. For YFP quenching assay, each well of the 96-well plate was washed 2 times with 200 μl of PBS, and it was filled with 50 μl of HEPES-buffered solution (140 mM NaCl, 5 mM KCl, 1 mM MgCl2, 1 mM CaCl2, 10 mM D-glucose, 10 mM HEPES; pH 7.4 with NaOH). After 10 minutes of incubation at 37° C., the 96-well plate was moved on the FLUOstar Omega Microplate Reader (BMG Labtech, Ortenberg, Germany) for a fluorescence assay. Each well was assayed individually for H723R-pendrin mediated I^− influx by recording fluorescence (495±15 nm excitation, 520±20 nm emission) every 400 ms for 1 second (baseline). Then, 50 μL of NaI-substituted HEPES-buffered solution (NaI replacing NaCl) was added using a liquid injector at 1 second and YFP fluorescence was recorded every 400 ms for 10 seconds. The initial iodide influx rate was determined from the initial slope of fluorescence by nonlinear regression, after the infusion of iodide.
It is indicated as EC50 with the following key: A=EC50 less than 5 uM; B=EC50 greater than 5 uM, but less than 10 uM; C=EC50 greater than 10 uM.

H723R-pendrin [2] = biological target: T2, H723R-pendrin; assay: PTI assay (Cl−/HCO3− exchange activity); conditions: PANC-1 cells, BCECF pHi
Experimental: Measurements of intracellular pH (pHi) in PANC-1 cells were performed with the pH-sensitive fluorescent probe 2′,7′-bis-(2-carboxyethyl)-5-(and-6)-carboxyfluorescein (BCECF) according to previously reported protocols. Briefly, cells were incubated with 2 μM BCECF acetoxy-methylester for 5 min and then perfused with a HCO3^−-buffered solution [containing 120 mM NaCl, 5 mM KCl, 1 mM MgCl2, 1 mM CaCl2, 10 mM d-glucose, 5 mM Hepes, and 25 mM NaHCO3 (pH 7.4)].
BCECF fluorescence was recorded at excitation wavelengths of 490 and 440 nm at a resolution of 2/s on a recording setup. The Cl^−/HCO3^− exchange activities were estimated from the initial rate of pHi increase as a result of Cl^− removal from the HCO3^−-containing buffer (25 mM HCO3^− with 5% CO2).
The pHi calibration was performed with standard pH solutions containing 150 mM KCl and 5 μM nigericin. The intrinsic buffer capacity (βi) was calculated by measuring ΔpHi in response to 5 to 40 mM NH4Cl pulses in Na^+-free solutions. Because the βi values were not substantially affected by transfection with the plasmids encoding for WT-pendrin or H723R-pendrin, the Cl^−/HCO3^− exchange activities were expressed as ΔpH unit/min without compensating for the buffer capacity.
It is indicated as exchange % with the following key: A=Exchange % greater than 50%; B=Exchange % less than 50%.

Structure (SMILES)	Surface expression % of H723R-hPDS relative to WT-hPDS (Glycosylated form pendrin) (H723R-hPDS; 3 uM)	Surface expression % of H723R-hPDS relative to WT-hPDS (Glycosylated form pendrin) (H723R-hPDS; 10 uM)	pEC50 (H723R-pendrin [1])	Cl−/HCO3− exchange, % of WT-hPDS (H723R-pendrin [2]; 3 uM)	Cl−/HCO3− exchange, % of WT-hPDS (H723R-pendrin [2]; 10 uM)
COc1ccc(-c2cncc(C3=C(N)N(CC(C)C)CC3=O)n2)cc1OC [Compound 8]	B (B=Expression % greater than 50%, but less than 100%)	A (A=Expression % greater than 100%)	> 5.30		
CC(C)CN1CC(=O)C(c2cncc(-c3ccc(O)c(O)c3)n2)=C1N [Compound 13]	A (A=Expression % greater than 100%)	A (A=Expression % greater than 100%)	> 5.30		
COc1cc(-c2cncc(C3=C(N)N(c4ccccc4Cl)CC3=O)n2)ccc1O [Compound 28]	A (A=Expression % greater than 100%)	A (A=Expression % greater than 100%)	> 5.30	B (B=Exchange % less than 50%)	A (A=Exchange % greater than 50%)
NC1=C(c2cncc(-c3ccc(O)c(O)c3)n2)C(=O)CN1C1CCCC1 [Compound 33]	A (A=Expression % greater than 100%)	A (A=Expression % greater than 100%)	> 5.30		
NC1=C(c2cncc(-c3ccc(O)c(O)c3)n2)C(=O)CN1CCC1CCCC1 [Compound 46]	B (B=Expression % greater than 50%, but less than 100%)	A (A=Expression % greater than 100%)	> 5.30		
NC1=C(c2cncc(-c3ccc(O)c(O)c3)n2)C(=O)CN1CC1CCCCC1 [Compound 49]	A (A=Expression % greater than 100%)	A (A=Expression % greater than 100%)	> 5.30	A (A=Exchange % greater than 50%)	A (A=Exchange % greater than 50%)
NC1=C(c2cncc(-c3ccc(O)c(O)c3)n2)C(=O)CN1C1CCC(F)(F)C1 (stereo not shown) [Compound 62]	B (B=Expression % greater than 50%, but less than 100%)	A (A=Expression % greater than 100%)	> 5.30		
NC1=C(c2cncc(-c3ccc(O)c(O)c3)n2)C(=O)CN1CC1CCC1 [Compound 69]			> 5.30	B (B=Exchange % less than 50%)	A (A=Exchange % greater than 50%)
COc1cc(-c2cncc(C3=C(N)N(CC4CCCC4)CC3=O)n2)ccc1O [Compound 73]			> 5.30	A (A=Exchange % greater than 50%)	A (A=Exchange % greater than 50%)
